According to paper PMC10313921, “A living ex vivo platform for functional, personalized brain cancer diagnosis” (Cell Reports Medicine, 2023):

Columns and labels:
Format in all cases: cell-based, human
[1] = system: MB231Br (breast cancer metastasis to brain); assay: Drug screening of MB231Br tumor foci on OBSCs
[2] = system: LN229 (established GBM line); assay: Drug screening of LN229 tumor foci on OBSCs
Protocol: (§1) Tumor cells (0.17 μL, 25,000 cells) were seeded onto OBSCs 2h after slicing, with one tumor seeded in the center of each hemisphere for a total of two tumor foci per OBSC. BSM was changed 24h after slicing. Fluorescence images were taken 0 h, 24 h, and 96 h post-seeding for normalization of tumor size. Bioluminescence readouts were also taken at 0 h, 24 h, and 96 h post seeding for assessment of cell viability. Luciferin was added underneath the culture insert and allowed to incubate for 10 min before bioluminescence measurement on an AMI optical imaging system.
(§2) Tumor cells were seeded onto OBSCs 2h after slicing as described above. One day after tumor seeding, six concentrations of each drug were diluted in the media underneath each culture insert, or XRad was applied using an X-Rad 320 Precision X-ray machine (n = 4 tumor foci per concentration; n ≥ 24 tumor foci per drug per cell line). Three days after treatment, the bioluminescence of live tumor cells was measured using an AMI optical imager (Spectral Instruments) and dose-response curves were generated. Tumor survival was normalized to day one tumor fluorescence and compared to an untreated control group.
(§3) Several weighted parameters were factored into an overall drug sensitivity score.
(§4) For DSS parameters 1–6, therapeutic windows were calculated by comparing OBSC toxicity and tumor response at the doses where tumor kill passed through the DSS parameter (Table S1 and S3). For DSS parameter 7, the therapeutic window was calculated by comparing the slopes through the tumor EC50 and the OBSC tox EC50. For DSS parameter 8, the therapeutic window was calculated by comparing the areas under tumor kill and OBSC tox curves. Normalized therapeutic window ratios for DSS parameters 1–8 within each drug-tumor-OBSC interaction were calculated in the following manner: within each window, values ranged from +1 to −1, where values approaching +1 signify increasing tumor kill relative to normal tissue toxicity, and values approaching −1 indicate agents where tumors remained highly viable while toxicity to the normal OBSC tissue was elevated. DSS parameters 9–11 were determined based on the behavior of the tumor in response to the drug, as defined above.
(§5) All individually weighed parameters were added together to generate the DSS. Overall DSS from 0 to 100 signify increasing efficacy in tumor kill relative to OBSC toxicity, while scores from 0 to −100 describe scenarios in which tumors thrive more effectively than OBSCs for a given treatment. Dose-response values were calculated via linear interpolation of raw data, not from best-fit curve equations.

[3] = system: U373WT (wild-type established GBM line); assay: Drug screening of U373WT tumor foci on OBSCs; details: U373 WT on OBSCs
Protocol: as §1, §2, §3, §4, §5

[4] = system: U373KO (RAD18 knockout of U373WT via CRISPR); assay: Drug screening of U373KO tumor foci on OBSCs; details: U373 KO on OBSCs
Protocol: as §1, §2, §3, §4, §5

[5] = system: GBM8 (high-passage patient-derived GBM line); assay: Drug screening of GBM8 tumor foci on OBSCs
Protocol: as §1, §2, §3, §4, §5

[6] = system: MS21 (low-passage patient-derived GBM line); assay: Drug screening of MS21 tumor foci on OBSCs
Protocol: as §1, §2, §3, §4, §5

[7] = system: PDIPG (low-passage pediatric patient-derived line); assay: Drug screening of PDIPG tumor foci on OBSCs
Protocol: as §1, §2, §3, §4, §5

[8] = system: PIS patient tumor tissue (intracranial sarcoma); assay: Drug screening of uncultured patient tumor tissue PIS on OBSCs; details: Homo sapiens; PIS on OBSCs; dose required to kill 90% of the tumor
Protocol: as §2
(§6) To engraft onto OBSCs, the cryopreserved/thawed or fresh brain tumor tissue was filtered through a 100 μm cell strainer. Each 50 mg of tissue was transfected with 1mL mcherry-FLuc Lentivirus at 1.5e7 vg/ml with 1μL polybrene for 4h at 37°C. After incubation, the brain tumor tissue was washed with PBS three times to remove the residual virus and reconstituted in PBS with a final volume of 150 μL. Then the tissue solution was engrafted atop OBSCs at ∼0.5 mg tissue in 3 μL of PBS on each hemisphere of the slice. The OBSC engrafted with patient tumor tissue was incubated at 37°C with 5% CO2 and 95% humidity. The BSM was changed after 24h and subsequently every 3 days. Tumor treatment studies were executed as described above for tumor lines. The viability of the patient tissue was measured by an AMI optical imaging system with the addition of 1.5 mg/mL luciferin underneath the culture insert.
as §3, §4, §5

[9] = system: PGBM patient tumor tissue (pediatric GBM); assay: Drug screening of uncultured patient tumor tissue PGBM on OBSCs; details: Homo sapiens, PGBM on OBSCs
Protocol: as §2, §6, §3, §4, §5

[10] = system: PGBM-R patient tumor tissue (recurrent tumor from same patient as PGBM); assay: Drug screening of uncultured patient tumor tissue PGBM-R on OBSCs; details: PGBM-R relative to PGBM
Protocol: as §2, §6, §3, §4, §5

[11] = area under the dose-response curve, trapezoidal rule
[12] = dose required to kill 10% of the tumor
[13] = dose required to kill 25% of the tumor
[14] = dose required to kill 75% of the tumor
[15] = Homo sapiens, U373 MG, dose required to kill 50% of the tumor
[16] = Homo sapiens, U373 MG, dose required to kill 90% of the tumor
[17] = Homo sapiens, U373 MG, dosed day 1, survival via bioluminescence day 4, linear interpolation

Nc1ncn([C@@H]2O[C@H](CO)[C@@H](O)[C@H]2O)c(=O)n1 [Azacitidine]
EC50 ([1]; Homo sapiens, MB231BR on OBSCs, dose required to kill 50% of the tumor): 208 µM
EC90 ([1]; Homo sapiens, MB231BR on OBSCs, dose required to kill 90% of the tumor): 906 µM
IC50 ([1]; Homo sapiens, MB231Br on OBSCs, dosed day 1, survival via bioluminescence day 4, linear interpolation): 208 µM
Killing at highest dose ([1]; MB231BR on OBSCs): 9.50E-01 fraction of tumor population killed
AUC ([1]; MB231BR on OBSCs, area under the dose-response curve, trapezoidal rule): 3.36E+02
EC10 ([1]; MB231BR on OBSCs, dose required to kill 10% of the tumor): 4.76 µM
EC25 ([1]; MB231BR on OBSCs, dose required to kill 25% of the tumor): 18.9 µM
EC75 ([1]; MB231BR on OBSCs, dose required to kill 75% of the tumor): 625 µM
Slope ([1]; MB231BR on OBSCs, slope through the EC50): -1.20E-03
Killing at highest dose [2]: 8.60E-01 fraction of tumor population killed
EC50 ([2]; Homo sapiens, LN-229, dose required to kill 50% of the tumor): 400 µM
EC90 ([2]; Homo sapiens, LN-229, dose required to kill 90% of the tumor): > 10 µM
IC50 ([2]; Homo sapiens, LN-229, dosed day 1, survival via bioluminescence day 4, linear interpolation): 400 µM
AUC [2, 11]: 4.51E+02
EC10 [2, 12]: 28.9 µM
EC25 [2, 13]: 45.6 µM
EC75 [2, 14]: 817 µM
Slope ([2]; slope through the EC50): -6.00E-04
EC50 [3, 15]: 800 µM
EC90 [3, 16]: > 10 µM
IC50 [3, 17]: 800 µM
Killing at highest dose [3]: 5.40E-01 fraction of tumor population killed
AUC [3, 11]: 5.88E+02
EC10 [3, 12]: 61.1 µM
EC25 [3, 13]: 81.9 µM
Slope ([3]; slope through the EC50): -2.00E-04
EC50 [4, 15]: 158 µM
EC90 [4, 16]: > 10 µM
IC50 [4, 17]: 158 µM
Killing at highest dose [4]: 8.30E-01 fraction of tumor population killed
AUC [4, 11]: 3.39E+02
EC10 [4, 12]: 23.8 µM
EC25 [4, 13]: 44.5 µM
EC75 [4, 14]: 647 µM
Slope ([4]; slope through the EC50): -1.73E-03
Killing at highest dose ([5]; GBM8 on OBSCs): 1.00E+00 fraction of tumor population killed
AUC ([5]; GBM8 on OBSCs, area under the dose-response curve, trapezoidal rule): 4.08E+01
EC10 ([5]; GBM8 on OBSCs, dose required to kill 10% of the tumor): 8.33 µM
EC25 ([5]; GBM8 on OBSCs, dose required to kill 25% of the tumor): 18.1 µM
EC75 ([5]; GBM8 on OBSCs, dose required to kill 75% of the tumor): 49.4 µM
Slope ([5]; GBM8 on OBSCs, slope through the EC50): -1.60E-02
EC50 ([5]; Homo sapiens): 33.8 µM
EC90 ([5]; Homo sapiens): 83.3 µM
IC50 ([5]; Homo sapiens): 34 µM
EC50 ([6]; Homo sapiens): 821 µM
EC90 ([6]; Homo sapiens): > 10 µM
IC50 ([6]; Homo sapiens): 821 µM
Killing at highest dose ([6]; MS21 on OBSCs): 5.50E-01 fraction of tumor population killed
AUC ([6]; MS21 on OBSCs, area under the dose-response curve, trapezoidal rule): 6.06E+02
EC10 ([6]; MS21 on OBSCs, dose required to kill 10% of the tumor): 31.5 µM
EC25 ([6]; MS21 on OBSCs, dose required to kill 25% of the tumor): 90.9 µM
Slope ([6]; MS21 on OBSCs, slope through the EC50): -2.80E-04
EC50 ([7]; Homo sapiens): 447 µM
EC90 ([7]; Homo sapiens): > 10 µM
IC50 ([7]; Homo sapiens): 447 µM
Killing at highest dose ([7]; PDIPG on OBSCs): 6.40E-01 fraction of tumor population killed
AUC ([7]; PDIPG on OBSCs, area under the dose-response curve, trapezoidal rule): 5.03E+02
EC10 ([7]; PDIPG on OBSCs, dose required to kill 10% of the tumor): 3.7 µM
EC25 ([7]; PDIPG on OBSCs, dose required to kill 25% of the tumor): 9.26 µM
Slope ([7]; PDIPG on OBSCs, slope through the EC50): -2.53E-04
EC90 [8]: > 10 µM
EC50 ([9]; dose required to kill 50% of the tumor): > 100 µM
EC90 ([9]; dose required to kill 90% of the tumor): > 10 µM
increase of DSS in the recurrent tumor [10]: 96 points
